Results as given in US9295722B2, “Bacterial glycolipid activation of CD1d-restricted NKT cells” (priority 2005, dated 2016).

What was measured:
Format in all cases: cell-based
mouse NKT cells [1] = assay: mouse CD1d tetramer-sorted NKT cells co-cultured with bone marrow derived DC, IFN-γ ELISA; details: co-cultured with CD1+/− or CD1−/− DC; 48 hrs
Description: (§1) Bacterial strains Sphingomonas capsulata (ATCC 14666) and Salmonella typhimurium R71 were grown in Mueller-Hinton Agar. Ehrlichia muris were prepared as described by Ismail N et al., J. Immunol. 172, 1786-1800 (2004), incorporated herein by reference. Bacteria were heat killed by 2-hour exposure to 74° C. and 2.5-5×10^6 cfu equivalent/well were used for in vitro stimulation.
Stimulation assays were performed with whole spleen cells (5×10^5 per 200 μl well) or with purified T cells and antigen presenting cells. […]
(§2) NKT cells were stimulated with heat-killed bacteria as indicated above for 48 hrs in 96 well round bottom plates in RPMI 1640 (Biofluids) supplemented with glutamine, antibiotics, 5×10^−5 M 2-ME and 10% FCS (mouse studies) or 5% AB serum (human studies). Concentrations of mouse and human IFN-γ. in the supernatant were measured at 48 hours using the respective ELISA kits (BD Bioscience, lower detection limit of 12.5 pg/ml).
Whole spleen cells co-cultured with DC of genotype MyD88^−/−, Trif^lps2/lps2 and MyD88^−/−Trif^lps2/lps2 (lacking one or the two adaptors MyD88 and TRIF for TLR signaling) or CD1^−/− were stimulated for 48 hours with 5×10^6 heat killed Salmonella, Sphingomonas or Ehrlichia. Concentrations of mouse and human IFN-γ. in the supernatant were measured at 48 hours using the respective ELISA kits (BD Bioscience, lower detection limit of 12.5 pg/ml).

human NKT cells [2] = assay: human NKT cells co-cultured with PBMC-derived DC, IFN-γ ELISA; details: blocking with 1 μg/mL anti-CD1d antibodies or control IgG1
Description: as §1
Stimulation assays were performed with whole spleen cells (5×10^5 per 200 μl well) or with purified T cells and antigen presenting cells. T cell populations used in the assays comprised sorted CD1d-Gal-Cer+ mouse spleen cells (5×10^4 per 200 μl well), human peripheral blood lymphocytes (PBL) (5×10^5 per 200 μl well) (obtained after Ficoll centrifugation of heparinized blood) or human NKT cell lines (2.5×10^5 per 200 μl well). […]
as §2

NKT cells = assay: activation of NKT cells in vitro by synthetic glycolipids
Text: Activation of NKT cells may be measured in vitro or ex vivo by any suitable method. An example of an in vitro test permitting evaluation of NKT cell activation is co-culturing NKT cells with antigen presenting cells (APC), such as dendritic cells (DC), in the presence of a bacterial glycolipid activator or putative activator, and subsequently assaying for IFN-γ or other secreted cytokines in the supernatant. Alternatively, activation of NKT cells can be measured ex vivo by administering a bacterial glycolipid antigen to a subject or by administering CD1d^+ antigen presenting cells after ex vivo contact with bacterial glycolipids to a subject. The NKT cells from these subjects can be isolated by, e.g., CD1d-tetramer staining and gating via flow cytometry, and subsequently assayed for surface CD69 (early T-cell activation antigen) and/or intracellular IFN-γ by suitable methods.
Some representative examples of suitable bacterial glycolipids for complexing with CD1d molecules and activating NKT cells are depicted in FIG. 5. […] The remaining compounds depicted in FIG. 5 were rationally designed based on the following features determined to be common among glycolipids capable of activating NKT cells: 1) an alpha-type glycosidic linkage and 2) oxidation at the 6-position on the carbohydrate moiety of the glycolipid.

[3] = test system: human Vα24-Jα18 NKT cells; assay: human Vα24-Jα18 NKT cells co-cultured with DC pulsed with synthetic glycolipid; details: for IFN-γ secretion: DC pulsed with 0.001 to 1000 ng/mL glycolipid, 48 hours
Description: (§3) Stimulation assays were performed with whole spleen cells (5×10^5 per 200 μl well) or with purified T cells and antigen presenting cells. T cell populations used in the assays comprised sorted CD1d-Gal-Cer+ mouse spleen cells (5×10^4 per 200 μl well), human peripheral blood lymphocytes (PBL) (5×10^5 per 200 μl well) (obtained after Ficoll centrifugation of heparinized blood) or human NKT cell lines (2.5×10^5 per 200 μl well). Human Vα24 NKT cells were derived from PBL stimulated with αGal-Cer and were maintained by repeated rounds of stimulation with PHA and IL-2 in the presence of irradiated PBMC and EBV transformed B cells in vitro. Antigen presenting cells were dendritic cells that were derived from bone marrow, stimulated with GMCSF/IL-4 (2 ng/mL and 5 ng/mL, Biosource) and cultured at 2.5×10^5 per 200 μl well for mouse assays, and irradiated allogeneic human PBMC fresh or cultured for 5 days with recombinant human GMCSF/IL-4, ([…] of each cytokine, R&D Systems) (2×10^5 per 200 μl well) for human assays. Cells were washed twice and starved for 6 hours in medium alone before addition to the stimulation experiments.
as §2
(§4) The immunological properties of the above compounds in NKT cells were measured. Human Vα24-Jα18 NKT cells and fresh purified mouse NKT cells were co-cultured with DC pulsed with αGal-Cer or synthetic glycolipid at concentrations ranging from 0.001 to 1000 ng/mL. IFN-γ production was measured at 48 hours as described above.

mouse NKT cells [4] = assay: fresh purified mouse NKT cells co-cultured with DC pulsed with synthetic glycolipid; details: for IFN-γ secretion: DC pulsed with 0.001 to 1000 ng/mL glycolipid, 48 hours
Description: as §3, §2, §4

human NKT cells [5] = assay: CD1d-glycolipid tetramer staining of human NKT cells
Description: (§5) At 6 days post stimulation, CD1d-αGal-Cer, CFSE and αB220 (BD Pharmingen) labeling and staining procedures were performed and cells were analyzed by FACS. To generate CD1d-αGal-Cer tetramers, a mixture of 5 μl of αGal-Cer (from 1 mg/ml stock solution in DMSO), 10 μl of PBS 0.5% Tween 20, 10 μl of biotinylated CD1d (1 mg/ml), and 75 μl of PBS was incubated at 37° C. for 1 hr, and lipid-loaded CD1d was purified by centrifugation dialysis and complexed with streptavidin-APC. (Benlagha K. et al., J. Exp. Med. 191, 1895-1903 (2000).) Cells were analyzed on a FACSCalibur (BD Biosciences) with CellQuest software.
(§6) CD1d tetramers were prepared as described in Example 1 using synthetic glycolipids PBS 30, PBS 59 and PBS 50 and αGal-Cer, and were used to stain human NKT cells and mouse spleen cells.

mouse NKT cells [6] = assay: CD1d-glycolipid tetramer staining of mouse spleen cells
Description: as §5, §6

| Molecule | IFN-γ secretion by mouse NKT cells (mouse NKT cells [1]) | IFN-γ secretion by human NKT cells (human NKT cells [2]) | activation of NKT cells (NKT cells) | NKT cell proliferation [3] | IFN-γ secretion [3] | NKT cell proliferation (mouse NKT cells [4]) | IFN-γ secretion (mouse NKT cells [4]) | human NKT cells stained by CD1d-glycolipid tetramers (human NKT cells [5]) | mouse NKT cells stained by CD1d-glycolipid tetramers (mouse NKT cells [6]) |
| --- | --- | --- | --- | --- | --- | --- | --- | --- | --- |
| CCCCCCCCCCCCCCCCCCCCCCCCCC(=O)N[C@@H](CO[C@H]1O[C@H](CO)[C@H](O)[C@H](O)[C@H]1O)[C@H](O)[C@H](O)CCCCCCCCCCCCCC [αGal-Cer, α-galactosylceramide] | secreted IFN-γ in a CD1d-dependent manner | CD1d-dependent IFN-γ secretion | – | – | – | – | – | – | – |
| α-galacturonosylceramide [PBS 59] | – | – | found to activate NKT cells | strongly activated | strongly activated | strongly activated | strongly activated | – | – |
| α-glucuronosylceramide [PBS 30] | – | – | found to activate NKT cells | strongly activated | strongly activated | strongly activated | strongly activated | all | ~25% |
| β-glucuronosylceramide [PBS 50, reference compound] | – | – | do not activate NKT cells | did not | did not | did not | did not | – | – |
